Reference: ChEMBL document CHEMBL1671627, “Increasing trends in antimicrobial resistance among clinically important anaerobes and Bacteroides fragilis isolates causing nosocomial infections: emerging resistance to carbapenems” (2008)
Converted amounts (≈) assume the structure as drawn.

Assays:
Prevotella buccae = test: Antibacterial activity against Prevotella buccae assessed as resistant isolates by CLSI agar dilution method; format: functional, Segatella buccae
Prevotella bivia = test: Antibacterial activity against Prevotella bivia assessed as resistant isolates by CLSI agar dilution method; format: functional
Prevotella intermedia = test: Antibacterial activity against Prevotella intermedia assessed as resistant isolates by CLSI agar dilution method; format: functional
[1] = tested on: Prevotella melaninogenica; test: Antibacterial activity against Prevotella melaninogenica assessed as resistant isolates by CLSI agar dilution method; format: functional
Veillonella parvula = test: Antibacterial activity against Veillonella parvula by CLSI agar dilution method; format: functional
Clostridium perfringens = test: microbe, parasite or virus in culture; format: functional
[2] = tested on: Clostridium paraputrificum; test: Antibacterial activity against beta-lactamase producing Clostridium paraputrificum by CLSI agar dilution method; format: functional
Clostridium septicum [3] = test: Antibacterial activity against beta-lactamase producing Clostridium septicum by CLSI agar dilution method; format: functional
Clostridium tertium [4] = test: Antibacterial activity against beta-lactamase producing Clostridium tertium by CLSI agar dilution method; format: functional
[5] = tested on: Clostridium paraputrificum; test: Antibacterial activity against beta-lactamase producing Clostridium paraputrificum assessed as susceptible isolates by CLSI agar dilution method; format: functional
Clostridium septicum [6] = test: Antibacterial activity against beta-lactamase producing Clostridium septicum assessed as susceptible isolates by CLSI agar dilution method; format: functional
Clostridium tertium [7] = test: Antibacterial activity against beta-lactamase producing Clostridium tertium assessed as susceptible isolates by CLSI agar dilution method; format: functional
Bacteroides fragilis = test: Antibacterial activity against Bacteroides fragilis by CLSI agar dilution method; format: functional
[8] = tested on: Bacteroides thetaiotaomicron; test: Antibacterial activity against beta-lactamase producing Bacteroides thetaiotaomicron by CLSI agar dilution method; format: functional
[9] = tested on: Clostridium paraputrificum; test: Antibacterial activity against beta-lactamase producing Clostridium paraputrificum assessed as resistant isolates by CLSI agar dilution method; format: functional
Clostridium septicum [10] = test: Antibacterial activity against beta-lactamase producing Clostridium septicum assessed as resistant isolates by CLSI agar dilution method; format: functional
Clostridium tertium [11] = test: Antibacterial activity against beta-lactamase producing Clostridium tertium assessed as resistant isolates by CLSI agar dilution method; format: functional
[12] = tested on: Peptostreptococcus anaerobius; test: Antibacterial activity against beta-lactamase producing Peptostreptococcus anaerobius by CLSI agar dilution method; format: functional
[13] = tested on: Peptostreptococcus anaerobius; test: Antibacterial activity against beta-lactamase producing Peptostreptococcus anaerobius assessed as susceptible isolates by CLSI agar dilution method; format: functional
[14] = tested on: Peptostreptococcus anaerobius; test: Antibacterial activity against beta-lactamase producing Peptostreptococcus anaerobius assessed as resistant isolates by CLSI agar dilution method; format: functional
Parvimonas micra [15] = test: Antibacterial activity against beta-lactamase producing Micromonas micros by CLSI agar dilution method; format: functional
Parvimonas micra [16] = test: Antibacterial activity against beta-lactamase producing Micromonas micros assessed as susceptible isolates by CLSI agar dilution method; format: functional
Parvimonas micra [17] = test: Antibacterial activity against beta-lactamase producing Micromonas micros assessed as resistant isolates by CLSI agar dilution method; format: functional
[18] = tested on: Peptoniphilus asaccharolyticus; test: Antibacterial activity against beta-lactamase producing Peptoniphilus asaccharolyticus by CLSI agar dilution method; format: functional
[19] = tested on: Peptoniphilus asaccharolyticus; test: Antibacterial activity against beta-lactamase producing Peptoniphilus asaccharolyticus assessed as susceptible isolates by CLSI agar dilution method; format: functional
[20] = tested on: Peptoniphilus asaccharolyticus; test: Antibacterial activity against beta-lactamase producing Peptoniphilus asaccharolyticus assessed as resistant isolates by CLSI agar dilution method; format: functional
Finegoldia magna [21] = test: Antibacterial activity against beta-lactamase producing Finegoldia magna by CLSI agar dilution method; format: functional
Finegoldia magna [22] = test: Antibacterial activity against beta-lactamase producing Finegoldia magna assessed as susceptible isolates by CLSI agar dilution method; format: functional
Finegoldia magna [23] = test: Antibacterial activity against beta-lactamase producing Finegoldia magna assessed as resistant isolates by CLSI agar dilution method; format: functional

O=C(N[C@H](CO)[C@H](O)c1ccc([N+](=O)[O-])cc1)C(Cl)Cl [CHLORAMPHENICOL]
Activity (Prevotella buccae): 0%
Activity (Prevotella bivia): 0%
Activity (Prevotella intermedia): 0%
Activity [1]: 0%
MIC (Veillonella parvula): 1 mg/L (≈ 3.09 µM)
MIC50 (Clostridium perfringens): 4 mg/L (≈ 12.4 µM)
MIC90 (Clostridium perfringens): 8 mg/L (≈ 24.8 µM)
MIC50 [2]: 4 mg/L (≈ 12.4 µM)
MIC90 [2]: 8 mg/L (≈ 24.8 µM)
MIC50 (Clostridium septicum [3]): 4 mg/L (≈ 12.4 µM)
MIC90 (Clostridium septicum [3]): 8 mg/L (≈ 24.8 µM)
MIC50 (Clostridium tertium [4]): 4 mg/L (≈ 12.4 µM)
MIC90 (Clostridium tertium [4]): 8 mg/L (≈ 24.8 µM)
Activity [5]: 89%
Activity (Clostridium septicum [6]): 89%
Activity (Clostridium tertium [7]): 89%
MIC50 (Bacteroides fragilis): 4 mg/L (≈ 12.4 µM)
MIC90 (Bacteroides fragilis): 8 mg/L (≈ 24.8 µM)
MIC [8]: 4 mg/L (≈ 12.4 µM)
MIC50 [8]: 4 mg/L (≈ 12.4 µM)
MIC90 [8]: 8 mg/L (≈ 24.8 µM)
Activity [9]: 0%
Activity (Clostridium septicum [10]): 0%
Activity (Clostridium tertium [11]): 0%
MIC [12]: 1 mg/L (≈ 3.09 µM)
MIC50 [12]: 1 mg/L (≈ 3.09 µM)
MIC90 [12]: 4 mg/L (≈ 12.4 µM)
Activity [13]: 94%
Activity [14]: 6%
MIC (Parvimonas micra [15]): 1 mg/L (≈ 3.09 µM)
MIC50 (Parvimonas micra [15]): 1 mg/L (≈ 3.09 µM)
MIC90 (Parvimonas micra [15]): 4 mg/L (≈ 12.4 µM)
Activity (Parvimonas micra [16]): 94%
Activity (Parvimonas micra [17]): 6%
MIC [18]: 1 mg/L (≈ 3.09 µM)
MIC50 [18]: 1 mg/L (≈ 3.09 µM)
MIC90 [18]: 4 mg/L (≈ 12.4 µM)
Activity [19]: 94%
Activity [20]: 6%
MIC (Finegoldia magna [21]): 1 mg/L (≈ 3.09 µM)
MIC50 (Finegoldia magna [21]): 1 mg/L (≈ 3.09 µM)
MIC90 (Finegoldia magna [21]): 4 mg/L (≈ 12.4 µM)
Activity (Finegoldia magna [22]): 94%
Activity (Finegoldia magna [23]): 6%
